According to patent publication US20200078379A1, “DEFEROXAMINE DERIVATIVES AS MEDICAMENTS” (BIOTECHNOLOGICKY USTAV AV CR, V.V.I., priority 2017, published 2020):

Assays:
[1] = system: human mammary gland cancer cell line MDA-MB-231; assay: dose-effect relationship of drugs and mixtures, crystal violet assay, Median-Effect / Combination index; type: cell-based; details: MDA-MB-231, crystal violet, 48 hours
Description: (§1) The potentiation of cytotoxic effect of compound 2 in combination with several cytostatics was evaluated. The dose-effect relationship of individual drugs and mixtures of compound 2 with paclitaxel, cis Pt (cis-platin), doxorubicin and fluorouracil was determined on human mammary gland cancer cell line MDA-MB-231 and pancreatic cell line BxPC3 by means of crystal violet assay. The linearized Median-Effect Plot of dose response line provided both parameters (IC50; trend line m(slope) value) of Median-Effect Equation for individual and combination treatment [ref: Theoretical basis, experimental design, and computerized simulation of synergism and antagonism in drug combination studies; Ting-Chao Chou: Pharmacol Rev. 58(3), 2006, 621-81; Erratum in Pharmacol Rev. 2007; 59(1), 124]:
(§2) Potentiation of combination effect of compound 2 was expressed for concentrations IC50, IC75, IC90, IC95 by calculation of Combination index (CI) applying Combination Index Theorem for mutually exclusive drugs. Overall CI was expressed by means of weighted average of IC50, IC75, IC90, IC95 [ref: Quantitative analysis of dose-effect relationships: the combined effects of multiple drugs or enzyme inhibitors; Ting-Chao Chou, Paul Talalay: Advances in Enzyme Regulation, Volume 22, 1984, Pages 27-55]: […]

[2] = system: pancreatic cell line BxPC3; assay: as above; type: cell-based
Description: as §1, §2

BT549 cells = assay: AnnexinV/PI cell death assay; type: cell-based; details: 48 hrs
Description: (§3) To confirm such findings by an independent method, cell death-inducing potency (cytotoxic efficacy) of DFO and compound 2 have been tested via annexin V/PI staining commonly used as a measure of apoptotic/necrotic cell death. Briefly, cells were seeded in 12-well plate at 100,000 per well, incubated with the selected compounds for 48 hours, then floating cells were spun, adherent cells trypsinized and spun as well followed by the staining with AnnexinV-FITC and PI probes. Cells were then washed with PBS and measured via Fluorescence Activated Sorter.

BT474 cells = assay: AnnexinV/PI cell death assay; type: cell-based; details: 48 hrs
Description: as §3

MDA-MB-231 cells [3] = assay: crystal violet assay, cellular viability; type: cell-based, human
MCF7 cells [4] = assay: OCR and ECAR, Seahorse instrument; type: cell-based, human; details: 1 hour incubation
Text: Application of compound 2 leads to marked inhibition of cellular respiration as evidenced by two independent methods: the Oxygraph instrument (Rohlenova, K., Sachaphibulkij, K., Stursa, J., Bezawork-Geleta, A., Blecha, J., Endaya, B., Werner, L., Cerny, J., Zobalova, R., Goodwin, J., Spacek, T., Alizadeh, P. E., Yan, B., Nguyen, M. N., Vondrusova, M., Sobol, M., Jezek, P., Hozak, P., Truksa, J., Rohlena, J., Dong, L. F., & Neuzil, J. (2017) Selective Disruption of Respiratory Supercomplexes as a New Strategy to Suppress Her2high Breast Cancer. Antioxid. Redox. Signal., 26, 84-103) (Table 6) and Seahorse instrument (Table 7). For Seahorse analysis, 20.000 or 30.000 cells were seeded in 96 well plates and incubated with compound 2 for 1 hour. Afterwards, oxygen consumption rate (OCR) and extracellular acidification rate (ECAR) were measured in three cycles of 3 minutes preceded by 3 minutes of mixing, using a Seahorse XFe96 analyzer (Agilent). Results express the mean values of the three cycles.

MDA-MB-231 cells [5] = assay: cellular proliferation, continuous confluence monitoring via Juli FL; type: cell-based, human; details: for Final confluence: MDA-MB-231, 48 hrs
Description: (§4) We also tested the ability of compound 2 to suppress proliferation of cancer cells by an alternative approach via the real time monitoring with a cellular analyser Juli FL. In brief, MCF7 or MDA-MB-231 cells were seeded in a 6-well plate the day before to reach approximately 20% confluence on the following day. Next day, the camera of the instrument was focused on a particular field with approximately 20% confluence and cells were continuously monitored, recording the confluence and visual appearance every 30 minutes for 48 hrs. Values were then expressed either as simple confluence at the end of the experiment or as slope of the line representing the confluence during a given period of time (Table 10). It is clear from the collected data that, in agreement with Xcelligence data, we do see inhibition of proliferation at 1 μM, complete block of proliferation at 2 μM and a cytotoxic effect at 5 μM. The effect is less pronounced in this case as dead cells remain in the monitored field and some are still counted as living cells by the software.

MCF7 cells [6] = assay: as above; type: cell-based, human; details: for Final confluence: MCF7, 48 hrs
Description: as §4

Which results are given for `CC(=O)N(O)CCCCCNC(=O)CCC(=O)N(O)CCCCCNC(=O)CCC(=O)N(O)CCCCCN(CCCCCCCCCC[P+](c1ccccc1)(c1ccccc1)c1ccccc1)CCCCCCCCCC[P+](c1ccccc1)(c1ccccc1)c1ccccc1.[Cl-].[Cl-]` [Compound 2, Triphenyl(3,14,25-trihydroxy-2,10,13,21,24-pentaoxo-31-(10-(triphenylphosphonio)decyl)-3,9,14,20,25,31-hexaazahentetracontan-41-yl)phosphonium chloride]?
IC50 ([1]; Homo sapiens, Chou-Talalay method, read-out: Median-Effect Plot parameter IC50): 5.89 µM; Median-Effect Plot parameter m (slope) [1]: 1.2778; Median-Effect Plot parameter m (slope) ([2]; 48 hours): 1.57; IC50 ([2]; Homo sapiens, BXPC-3, 48 h, read-out: Median-Effect Plot parameter IC50): 4.5 µM; mean percentage of dead cells (AnnexinV/PI) (BT549 cells; BT549, 5 μM): 31.8%; mean percentage of dead cells (AnnexinV/PI) (BT549 cells; BT549, 10 μM): 52.3%; mean percentage of dead cells (AnnexinV/PI) (BT549 cells; BT549, 20 μM): 80.4%; mean percentage of dead cells (AnnexinV/PI) (BT474 cells; BT474, 5 μM): 18.6%; mean percentage of dead cells (AnnexinV/PI) (BT474 cells; BT474, 10 μM): 39.9%; mean percentage of dead cells (AnnexinV/PI) (BT474 cells; BT474, 20 μM): 92.5%; Selectivity index (IC50 non-malignant/IC50 malignant) (MDA-MB-231 cells [3]; BJ vs MDA-MB-231, 48 hours): 2.64; IC50 (MDA-MB-231 cells [3]; Homo sapiens, MDA-MB-231, 48 h, read-out: IC50 cellular viability): 5.4 µM; Oxygen consumption rate (OCR) (MCF7 cells [4]; MCF7, 5 μM): 15.4 pmol*min^−1 10.000 cells^−1; extracellular acidification rate (ECAR) (MCF7 cells [4]; MCF7, 5 μM): 9.69 mpH*min^−1 10.000 cells^−1; Oxygen consumption rate (OCR) (MCF7 cells [4]; MCF7, 10 μM): 9.6 pmol*min^−1 10.000 cells^−1; extracellular acidification rate (ECAR) (MCF7 cells [4]; MCF7, 10 μM): 8.2 mpH*min^−1 10.000 cells^−1; slope of the confluence line (MDA-MB-231 cells [5]; MDA-MB-231, 0-22 h, 1 μM): 0.786 (0.010); slope of the confluence line (MDA-MB-231 cells [5]; MDA-MB-231, 0-22 h, 2 μM): 0.470 (0.006); slope of the confluence line (MDA-MB-231 cells [5]; MDA-MB-231, 0-22 h, 5 μM): 0.454 (0.014); slope of the confluence line (MDA-MB-231 cells [5]; MDA-MB-231, 22-48 h, 1 μM): 0.934 (0.014); slope of the confluence line (MDA-MB-231 cells [5]; MDA-MB-231, 22-48 h, 2 μM): 0.114 (0.011); slope of the confluence line (MDA-MB-231 cells [5]; MDA-MB-231, 22-48 h, 5 μM): −0.057 (0.013); Final confluence (MDA-MB-231 cells [5]; 1 μM): 65.15 (3.3); Final confluence (MDA-MB-231 cells [5]; 2 μM): 46.58 (2.7); Final confluence (MDA-MB-231 cells [5]; 5 μM): 25.87 (2.4); slope of the confluence line (MCF7 cells [6]; MCF7, 0-22 h, 1 μM): 0.655 (0.022); slope of the confluence line (MCF7 cells [6]; MCF7, 0-22 h, 2 μM): 0.324 (0.016); slope of the confluence line (MCF7 cells [6]; MCF7, 0-22 h, 5 μM): 0.317 (0.030); slope of the confluence line (MCF7 cells [6]; MCF7, 22-48 h, 1 μM): 0.510 (0.014); slope of the confluence line (MCF7 cells [6]; MCF7, 22-48 h, 2 μM): 0.104 (0.007); slope of the confluence line (MCF7 cells [6]; MCF7, 22-48 h, 5 μM): −0.076 (0.010); Final confluence (MCF7 cells [6]; 1 μM): 53.15 (4.0); Final confluence (MCF7 cells [6]; 2 μM): 32.94 (2.5); Final confluence (MCF7 cells [6]; 5 μM): 26.54 (1.9)
